Experimental findings from patent US20240317727A1 (Duke University, priority 2018, published 2024) are described below.

One experiment concerns the target T1, recombinant HSF1 DNA-binding domain (DBD) (Homo sapiens, UniProt Q00613).
T1 sequence (Q00613 15-120): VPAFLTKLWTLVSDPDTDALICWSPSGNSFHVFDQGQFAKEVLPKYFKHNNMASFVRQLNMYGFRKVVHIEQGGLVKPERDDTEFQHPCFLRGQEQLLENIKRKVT
Kind of experiment: Differential Scanning Fluorimetry (DSF), HSF1 DBD melting temperature. As to conditions: Table 1; 5 μM HSF1 DBD, 25PM Compound; positive = stabilizes, negative = destabilizes HSF1. For orientation: DSF heats the sample and reads unfolding from a dye or from intrinsic fluorescence.
For `CCOC(=O)c1c(Cl)c2ccccc2oc1=O` [Compound 0021], the ΔTm (usually the shift of the melting midpoint relative to a reference) at 25 µM was -9.19 °C. Same read-out and setting: the same measure for `Cc1cccc(NC(=O)Nc2cccc([N+](=O)[O-])c2)c1` [Compound 0067, 1-(3-nitrophenyl)-3-(m-tolyl)urea]: 4 °C.

As for `O=c1c(Nc2ccc(F)cc2)c(Nc2ccc(Cl)c([N+](=O)[O-])c2)c1=O` [Compound 0002, 3-(4-chloro-3-nitro-anilino)-4-(4-fluoroanilino)cyclobut-3-ene-1,2-dione], the ΔTm at 25 µM was 1.9 °C. In the case of `Cc1ccc(NC(=O)Nc2ccc(Br)c(C(F)(F)F)c2)cc1` [Compound 0075, 1-(4-bromo-3-(trifluoromethyl)phenyl)-3-(p-tolyl)urea], the ΔTm at 25 µM was 2.61 °C. Still for that read-out and setting: to `O=C(Nc1ccc(F)cc1)Nc1cccc(Cl)c1` [Compound 0060, 1-(3-chlorophenyl)-3-(4-fluorophenyl)urea] belongs 2.5 °C; to `O=[N+]([O-])c1cc(C(F)(F)F)cc([N+](=O)[O-])c1Oc1ccc(F)cc1F` [Compound 0012], -4.73 °C; to `O=C(O)C1=CC(=C(c2ccc(O)c(C(=O)O)c2)c2ccc(O)c(C(=O)O)c2)C=CC1=O` [Compound 0086], -11.5 °C. On the same count and under the same terms, the same measure for `O=C(Nc1cccc(C(F)(F)F)c1)Nc1ccc2nonc2c1` [Compound 0035]: 6.44 °C; for `Cc1c2oc3c(C)c(O)c(I)cc3c(-c3c(Cl)c(Cl)c(Cl)c(Cl)c3C(=O)O)c-2cc(I)c1=O` [Compound 0100]: -7.52 °C; for `Cc1ccc(NC(=O)Nc2cccc(C(F)(F)F)c2)cc1` [Compound 0058, 1-(p-tolyl)-3-(3-(trifluoromethyl)phenyl)urea]: 2.58 °C. The same measure, in the same setting: the same measure for `O=C(Nc1cc(Cl)cc(Cl)c1)Nc1cc(-c2cccs2)n[nH]1` [Compound 0074]: 2.61 °C. Consider `CCN1C(=O)/C(=C\c2cc([N+](=O)[O-])cc(Br)c2O)SC1=S` [Compound 0099], for which the ΔTm at 25 µM is -6.74 °C.

As for `O=C(Nc1ccc(F)c(F)c1)Nc1ccc(Cl)c([N+](=O)[O-])c1` [Compound 0034, 1-(4-chloro-3-nitrophenyl)-3-(3,4-difluorophenyl)urea], the ΔTm at 25 µM was found to be 5.7 °C. As for `O=C(Nc1cccc(F)c1)Nc1ccc(Cl)c([N+](=O)[O-])c1` [Compound 0020, 1-(4-chloro-3-nitrophenyl)-3-(3-fluorophenyl)urea], the ΔTm at 25 µM came out at 5.2 °C. On the same count and under the same terms, to `Cc1cccc(NC(=O)Nc2cccc(Cl)c2)c1` [Compound 0063, 1-(3-chlorophenyl)-3-(m-tolyl)urea] belongs 2.5 °C.

As to `N#Cc1cc(NC(=O)Nc2ccc(F)cc2)ccc1Cl` [Compound 0083, 1-(4-chloro-3-cyano-phenyl)-3-(4-fluorophenyl) urea], the ΔTm at 25 µM was 2 °C.

`CSc1sc(NC(=O)Nc2cccc(C(F)(F)F)c2)cc1C#N` [Compound 0065]: the shift in melting temperature (ΔTm) at 25 µM amounted to 4.44 °C. Same read-out and setting: to `O=C(Nc1ccccc1)Nc1cccc(Cl)c1` [Compound 0091, 1-(3-chlorophenyl)-3-phenylurea] belongs 2.5 °C; to `CC1CC(=O)Oc2cc(Oc3c([N+](=O)[O-])cc(C(F)(F)F)cc3[N+](=O)[O-])ccc21` (centres unmarked) [Compound 0042], -6.23 °C; to `O=C(Nc1ccc(Cl)cc1)Nc1ccc(Cl)c(Cl)c1` [Compound 0001], 4.78 °C. Still for that read-out and setting: the same measure for `Cc1ccc(-n2c(SCC(=O)NC(C)c3ccccc3)nnc2-c2ccccc2)cc1` (centres unmarked) [Compound 0030]: -8.57 °C; for `O=C(Nc1cccc(Cl)c1)Nc1ccc(Cl)c([N+](=O)[O-])c1` [Compound 0061, 1-(4-chloro-3-nitrophenyl)-3-(3-chlorophenyl)urea]: 2.94 °C.

Regarding `O=C(Nc1ccc(Cl)c([N+](=O)[O-])c1)Nc1ccc(F)cc1C1(C(F)(F)F)N=N1` [Compound 0079, 1-(4-chloro-3-nitro-phenyl)-3-[4-fluoro-2-[3-(trifluoromethyl)diazirin-3-yl]phenyl]urea], the ΔTm at 25 µM stood at 2.25 °C.

Consider `O=C(Nc1ccc(F)cc1)Nc1ccc(Cl)c(O)c1` [Compound 0103, 1-(4-chloro-3-hydroxyphenyl)-3-(4-fluorophenyl)urea], for which the ΔTm at 25 µM amounted to 4.7 °C. Same read-out and setting: to `N=C(N)NC(=O)c1nc(Cl)c(N)nc1N` [Compound 0053] belongs -10.1 °C.

For `CC(C)(C)c1ccc(NC(=O)Nc2ccc(Cl)c([N+](=O)[O-])c2)cc1` [Compound 0105, 1-(4-(tert-butyl)phenyl)-3-(4-chloro-3-nitrophenyl)urea], the ΔTm at 25 µM is 3.2 °C. For the compound `Cc1ccc(CNC(=O)CSc2nnc(-c3ccccc3)n2-c2ccc(C)c(C)c2)cc1` [Compound 0115], the ΔTm at 25 µM was -9.91 °C. On the same count and under the same terms, the same measure for `O=C(Nc1ccc(Cl)c(Cl)c1)Nc1ccc(Cl)c([N+](=O)[O-])c1` [Compound 0044, 1-(4-chloro-3-nitrophenyl)-3-(3,4-dichlorophenyl)urea]: 2.33 °C; for `Cc1cc([N+](=O)[O-])cc([N+](=O)[O-])c1Sc1ncc2ccccn12` [Compound 0093]: -3.44 °C; for `O=[N+]([O-])c1cc(NC2=NS(=O)(=O)N=C2Nc2ccc(F)cc2)ccc1Cl` [Compound 0080, N3-(4-chloro-3-nitro-phenyl)-N4-(4-fluorophenyl)-1,1-dioxo-1,2,5-thiadiazole-3,4-diamine]: 1.6 °C. Still for that read-out and setting: the same measure for `CC(C)(C)CC(C)(C)c1ccc(O)c(Cc2ccc(Cl)cc2Cl)c1` [Compound 0073]: 2.6 °C. The same measure, in the same setting: the same measure for `CCOC(=O)c1sc(Sc2ccc([N+](=O)[O-])cc2[N+](=O)[O-])nc1C` [Compound 0108]: -4.19 °C; for `Cc1ccc(NC(=O)Nc2ccc(Cl)c([N+](=O)[O-])c2)cc1` [Compound 0046, 1-(4-chloro-3-nitrophenyl)-3-(p-tolyl)urea]: 4.3 °C.

As for `O=C(Nc1ccc(Cl)cc1)Nc1cccc([N+](=O)[O-])c1` [Compound 0049, 1-(4-chlorophenyl)-3-(3-nitrophenyl)urea], the ΔTm at 25 µM was 3.11 °C. Take `N=C(Nc1ccc(F)cc1)Nc1ccc(Cl)c(C(F)(F)F)c1` [Compound 0032, 1-[4-chloro-3-(trifluoromethyl)phenyl]-3-(4-fluorophenyl)guanidine]: the ΔTm at 25 µM amounted to 0.75 °C. The same measure, in the same setting: the same measure for `O=C(Nc1cccc(Cl)c1)Nc1cccc([N+](=O)[O-])c1` [Compound 0078, 1-(3-chlorophenyl)-3-(3-nitrophenyl)urea]: 2.25 °C; for `Cc1cc(C(C#N)c2ccc(Cl)cc2)c(Cl)cc1NC(=O)c1cc(I)cc(I)c1O` (centres unmarked) [Compound 0040]: -7.95 °C; for `Cc1cc(Oc2c([N+](=O)[O-])cc(C(F)(F)F)cc2[N+](=O)[O-])c2c(Cl)ccc(C)c2n1` [Compound 0111]: -5.21 °C. Still for that read-out and setting: the same measure for `Oc1ccc(Cl)cc1/C=N/Nc1cccc(C(F)(F)F)c1` [Compound 0024]: 4.44 °C. On the same count and under the same terms, to `CCOc1ccc(S(=O)(=O)NCc2ccccn2)c2ccccc12` [Compound 0087] belongs -9.24 °C. As for `CC(C)(C)c1ccc(-c2nnc(SCC(=O)NCc3ccccc3)n2-c2ccccc2)cc1` [Compound 0084], the ΔTm at 25 µM is -8.96 °C. Same read-out and setting: to `CSc1ccc(Oc2c([N+](=O)[O-])cc(C(F)(F)F)cc2[N+](=O)[O-])cc1` [Compound 0116] belongs -5.56 °C.

The same experiment, now with this note: Table 3; 5 μM HSF1 DBD, 25PM Compound; positive = stabilizes, negative = destabilizes HSF1.
With `O=C(Nc1ccc(Cl)c([N+](=O)[O-])c1)Nc1ccc(F)cc1C1(C(F)(F)F)N=N1` [Compound 079, 1-(4-chloro-3-nitro-phenyl)-3-[4-fluoro-2-[3-(trifluoromethyl)diazirin-3-yl]phenyl]urea], the ΔTm at 25 µM was 2.25 °C. Same read-out and setting: the same measure for `O=C(Nc1ccc(F)cc1)Nc1ccc2nonc2c1` [Compound 027, 1-(2,1,3-benzoxadiazol-5-yl)-3-(4-fluorophenyl)urea]: 2.8 °C; for `O=C(Nc1ccc(F)c(F)c1)Nc1ccc(Cl)c([N+](=O)[O-])c1` [Compound 034, 1-(4-chloro-3-nitrophenyl)-3-(3,4-difluorophenyl)urea]: 5.7 °C. Still for that read-out and setting: to `O=C(Nc1ccc(F)cc1)Nc1ccc(Br)c(C(F)(F)F)c1` [Compound 005, 1-(4-bromo-3-(trifluoromethyl)phenyl)-3-(4-fluorophenyl)urea] belongs 5.1 °C; to `O=c1c(Nc2ccc(F)cc2)c(Nc2ccc(Cl)c(C(F)(F)F)c2)c1=O` [Compound 064, 3-[4-chloro-3-(trifluoromethyl)anilino]-4-(4-fluoroanilino)cyclobut-3-ene-1,2-dione], 2.3 °C.

Regarding `O=C(Nc1ccc(Cl)c(Cl)c1)Nc1ccc(Cl)c([N+](=O)[O-])c1` [Compound 044, 1-(4-chloro-3-nitrophenyl)-3-(3,4-dichlorophenyl)urea], the ΔTm at 25 µM was found to be 2.33 °C. With `N#Cc1cc(NC(=O)Nc2ccc(F)cc2)ccc1Cl` [Compound 083, 1-(4-chloro-3-cyano-phenyl)-3-(4-fluorophenyl) urea], the ΔTm at 25 µM was determined as 2 °C. Still for that read-out and setting: to `O=[N+]([O-])c1cc(NC2=NS(=O)(=O)N=C2Nc2ccc(F)cc2)ccc1Cl` [Compound 080, N3-(4-chloro-3-nitro-phenyl)-N4-(4-fluorophenyl)-1,1-dioxo-1,2,5-thiadiazole-3,4-diamine] belongs 1.6 °C; to `O=S1(=O)N=C(Nc2ccc(F)cc2)C(Nc2ccc(Cl)c(C(F)(F)F)c2)=N1` [Compound 033, N3-[4-chloro-3-(trifluoromethyl)phenyl]-N4-(4-fluorophenyl)-1,1-dioxo-1,2,5-thiadiazole-3,4-diamine], 1.9 °C; to `CC(=O)Nc1cc(NC(=O)Nc2ccc(F)cc2)ccc1Cl` [Compound 095, N-[2-chloro-5-[(4-fluorophenyl)carbamoylamino]phenyl]acetamide], 0.67 °C. `Cc1ccc(NC(=O)Nc2ccc(Cl)c([N+](=O)[O-])c2)cc1` [Compound 046, 1-(4-chloro-3-nitrophenyl)-3-(p-tolyl)urea]: the ΔTm at 25 µM is 4.3 °C.
